Literature values as cited in patent US8642030B2, “Compositions containing coenzyme Q-10 and dihydrolipoic acid” (EPC Europe GmbH, priority 2006, dated 2014).

Conditions: cited from earlier work

Compound: COC1=C(OC)C(=O)C(C/C=C(\C)CC/C=C(\C)CC/C=C(\C)CC/C=C(\C)CC/C=C(\C)CC/C=C(\C)CC/C=C(\C)CC/C=C(\C)CC/C=C(\C)CCC=C(C)C)=C(C)C1=O [CoQ-10]
- solubility in most hydrophilic solvents such as water: sparingly soluble
